The results in this text go back to patent US20240132521A1, “COMPOUNDS AND METHODS FOR MODULATING HER2” (Iambic Therapeutics, Inc., priority 2022, published 2024).

Where two headings read alike, the source gives them in different places. Some results are limits rather than exact numbers.

Holding throughout (type): cell-based
The target in one assay is BaF3_HER2YVMA cells (Homo sapiens, UniProt P04626, DUP772-775, cells depend on it). As to the kind of experiment: Cell growth inhibition assay (CellTiterGlo), BaF3_HER2YVMA. On the technique in general: ATP-based viability assays read luminescence as a measure of living cells.
Another assay deals with BaF3_EGFRWT cells (Homo sapiens, UniProt P00533). As to the kind of experiment: Cell growth inhibition assay (CellTiterGlo), BaF3_EGFRWT.
A further assay concerns the target BaF3_HER2WT cells (Homo sapiens, UniProt P04626). As to the kind of experiment: Cell growth inhibition assay (CellTiterGlo), BaF3_HER2WT.
Setting [1] is: 3-day treatment, CellTiterGlo, read-out: Cell growth inhibition activity, HER2 - YVMA.
[2] abbreviates: 3-day treatment, CellTiterGlo, read-out: Cell growth inhibition activity, EGFR WT.
[3] abbreviates: 3-day treatment, CellTiterGlo, read-out: Cell growth inhibition activity, HER2 WT.
Setting [4] is: cell growth inhibition, 3 days treatment, read-out: HER2 - YVMA IC50.
Setting [5] is: cell growth inhibition, 80 ng/mL EGF, 3 days treatment, read-out: EGFR WT IC50.
Where [6] appears, read: cell growth inhibition, 3 days treatment, read-out: HER2 WT IC50.

Sequence of BaF3_HER2WT cells (P04626 whole entry, change not shown): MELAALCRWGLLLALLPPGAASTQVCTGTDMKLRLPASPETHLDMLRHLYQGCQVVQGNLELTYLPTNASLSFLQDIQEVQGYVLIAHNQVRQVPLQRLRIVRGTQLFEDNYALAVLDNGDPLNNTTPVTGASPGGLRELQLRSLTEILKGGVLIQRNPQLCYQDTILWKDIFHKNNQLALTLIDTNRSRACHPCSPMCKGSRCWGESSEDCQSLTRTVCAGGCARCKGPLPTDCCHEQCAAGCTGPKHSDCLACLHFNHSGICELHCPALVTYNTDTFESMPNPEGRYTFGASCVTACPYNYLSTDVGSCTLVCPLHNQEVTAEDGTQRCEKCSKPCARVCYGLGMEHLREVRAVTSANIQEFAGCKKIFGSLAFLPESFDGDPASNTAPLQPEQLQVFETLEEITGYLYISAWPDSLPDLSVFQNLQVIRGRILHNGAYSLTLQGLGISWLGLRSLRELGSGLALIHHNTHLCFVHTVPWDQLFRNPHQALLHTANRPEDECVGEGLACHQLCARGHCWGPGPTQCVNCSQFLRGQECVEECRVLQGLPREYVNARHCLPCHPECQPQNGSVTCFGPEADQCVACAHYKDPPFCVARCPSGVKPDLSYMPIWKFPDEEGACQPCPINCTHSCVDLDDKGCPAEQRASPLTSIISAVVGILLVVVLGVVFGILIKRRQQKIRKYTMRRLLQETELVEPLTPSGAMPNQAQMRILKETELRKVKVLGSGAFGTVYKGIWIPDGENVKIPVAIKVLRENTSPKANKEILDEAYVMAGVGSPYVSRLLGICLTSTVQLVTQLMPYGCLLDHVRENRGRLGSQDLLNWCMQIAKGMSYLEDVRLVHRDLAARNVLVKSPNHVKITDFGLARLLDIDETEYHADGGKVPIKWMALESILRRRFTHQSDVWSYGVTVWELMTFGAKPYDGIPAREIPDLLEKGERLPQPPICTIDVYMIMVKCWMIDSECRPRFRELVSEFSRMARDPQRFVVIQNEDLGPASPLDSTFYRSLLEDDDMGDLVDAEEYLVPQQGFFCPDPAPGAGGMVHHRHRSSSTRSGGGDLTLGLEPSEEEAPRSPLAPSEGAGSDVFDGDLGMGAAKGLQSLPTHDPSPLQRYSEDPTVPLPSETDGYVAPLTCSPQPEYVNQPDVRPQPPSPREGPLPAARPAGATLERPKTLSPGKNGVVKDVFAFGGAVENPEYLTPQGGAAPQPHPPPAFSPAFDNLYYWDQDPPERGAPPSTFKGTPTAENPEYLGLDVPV
Sequence of BaF3_HER2YVMA cells (P04626 with tags, fused parts or gaps DUP772-775): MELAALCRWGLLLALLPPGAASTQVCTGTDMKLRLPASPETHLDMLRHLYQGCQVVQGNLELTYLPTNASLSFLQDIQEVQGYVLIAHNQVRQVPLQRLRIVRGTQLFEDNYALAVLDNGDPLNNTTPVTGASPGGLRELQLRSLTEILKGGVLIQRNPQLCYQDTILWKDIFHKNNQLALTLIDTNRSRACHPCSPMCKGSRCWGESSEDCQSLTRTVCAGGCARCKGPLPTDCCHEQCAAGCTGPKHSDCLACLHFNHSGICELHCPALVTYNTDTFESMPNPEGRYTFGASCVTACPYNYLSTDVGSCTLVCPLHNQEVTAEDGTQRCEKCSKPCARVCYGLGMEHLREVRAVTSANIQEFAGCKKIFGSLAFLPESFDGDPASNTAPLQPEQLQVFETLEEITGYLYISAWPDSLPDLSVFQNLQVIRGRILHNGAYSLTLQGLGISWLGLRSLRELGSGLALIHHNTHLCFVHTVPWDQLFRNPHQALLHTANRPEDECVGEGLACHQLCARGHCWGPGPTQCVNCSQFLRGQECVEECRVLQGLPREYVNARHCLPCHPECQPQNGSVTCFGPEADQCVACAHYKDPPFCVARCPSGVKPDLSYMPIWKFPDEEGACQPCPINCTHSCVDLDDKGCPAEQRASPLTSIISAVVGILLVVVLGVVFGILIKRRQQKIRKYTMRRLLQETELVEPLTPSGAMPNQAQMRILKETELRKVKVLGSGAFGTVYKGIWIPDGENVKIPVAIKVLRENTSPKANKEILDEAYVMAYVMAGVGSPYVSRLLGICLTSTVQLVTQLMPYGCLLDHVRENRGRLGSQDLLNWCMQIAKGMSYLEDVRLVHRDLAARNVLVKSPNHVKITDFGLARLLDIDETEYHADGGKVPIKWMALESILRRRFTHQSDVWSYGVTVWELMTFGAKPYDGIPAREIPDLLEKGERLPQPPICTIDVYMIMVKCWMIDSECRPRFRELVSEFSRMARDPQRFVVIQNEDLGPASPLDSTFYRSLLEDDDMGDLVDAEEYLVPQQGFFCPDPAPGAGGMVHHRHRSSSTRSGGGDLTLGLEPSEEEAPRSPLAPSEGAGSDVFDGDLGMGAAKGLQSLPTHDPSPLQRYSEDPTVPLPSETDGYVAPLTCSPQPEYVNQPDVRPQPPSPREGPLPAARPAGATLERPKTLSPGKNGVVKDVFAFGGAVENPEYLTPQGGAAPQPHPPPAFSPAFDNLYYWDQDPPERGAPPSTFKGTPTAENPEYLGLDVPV
Sequence of BaF3_EGFRWT cells (P00533 whole entry, change not shown): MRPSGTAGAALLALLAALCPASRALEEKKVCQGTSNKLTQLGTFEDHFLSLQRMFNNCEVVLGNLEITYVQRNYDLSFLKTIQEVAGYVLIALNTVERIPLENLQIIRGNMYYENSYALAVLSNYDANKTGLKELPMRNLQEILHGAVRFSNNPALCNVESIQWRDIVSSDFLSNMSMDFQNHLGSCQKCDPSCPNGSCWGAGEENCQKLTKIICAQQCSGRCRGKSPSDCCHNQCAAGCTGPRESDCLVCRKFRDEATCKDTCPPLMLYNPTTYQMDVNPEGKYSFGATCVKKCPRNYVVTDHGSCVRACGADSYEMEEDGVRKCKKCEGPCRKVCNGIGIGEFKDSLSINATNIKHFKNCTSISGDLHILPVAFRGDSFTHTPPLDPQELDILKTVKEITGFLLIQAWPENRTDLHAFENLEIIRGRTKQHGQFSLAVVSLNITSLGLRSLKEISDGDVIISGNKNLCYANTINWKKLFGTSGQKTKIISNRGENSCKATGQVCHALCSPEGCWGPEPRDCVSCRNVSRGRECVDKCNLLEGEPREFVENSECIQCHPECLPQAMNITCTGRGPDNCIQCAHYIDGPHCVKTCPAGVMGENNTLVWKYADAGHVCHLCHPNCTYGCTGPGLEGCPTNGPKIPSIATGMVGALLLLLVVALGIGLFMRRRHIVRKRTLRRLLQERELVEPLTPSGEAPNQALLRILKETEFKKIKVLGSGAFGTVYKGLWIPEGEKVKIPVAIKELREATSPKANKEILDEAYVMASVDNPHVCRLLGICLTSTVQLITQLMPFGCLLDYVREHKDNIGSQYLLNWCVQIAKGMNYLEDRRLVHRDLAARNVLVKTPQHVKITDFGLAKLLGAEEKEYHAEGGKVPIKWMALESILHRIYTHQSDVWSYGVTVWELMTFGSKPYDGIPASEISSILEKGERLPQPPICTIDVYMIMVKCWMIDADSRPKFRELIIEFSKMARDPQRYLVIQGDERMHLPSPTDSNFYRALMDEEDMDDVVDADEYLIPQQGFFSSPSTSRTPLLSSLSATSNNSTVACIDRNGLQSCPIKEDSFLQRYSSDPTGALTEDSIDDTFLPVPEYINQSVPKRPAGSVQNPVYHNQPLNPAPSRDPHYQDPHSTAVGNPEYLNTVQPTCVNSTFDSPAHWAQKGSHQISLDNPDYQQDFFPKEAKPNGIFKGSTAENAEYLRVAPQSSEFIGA

As to `Cc1cc(Nc2ncnn3cc(F)c(C4CCN(C(=O)/C=C/CN(C)C)CC4)c23)ccc1Oc1ccn2ncnc2c1` [Example 152, (E)-1-(4-(4-((4-([1,2,4]triazolo[1,5-a]pyridin-7-yloxy)-3-methylphenyl)amino)-6-fluoropyrrolo[2,1-f][1,2,4]triazin-5-yl)piperidin-1-yl)-4-(dimethylamino)but-2-en-1-one], the GI50 was below 200 nM on BaF3_HER2YVMA cells (setting [1]), 1500 to 5000 nM at BaF3_EGFRWT cells (setting [2]) and below 200 nM on BaF3_HER2WT cells (setting [3]).
As to `CO[C@H]1CN(C/C=C/C(=O)N2CCC(c3ccn4ncnc(Nc5ccc(Oc6ccc7c(c6)ncn7C)c(C)c5)c34)CC2)C[C@H]1OC` [Example 167, (E)-4-((3R,4S)-3,4-dimethoxypyrrolidin-1-yl)-1-(4-(4-((3-methyl-4-((1-methyl-1H-benzo[d]imidazol-5-yl)oxy)phenyl)amino)pyrrolo[2,1-f][1,2,4]triazin-5-yl)piperidin-1-yl)but-2-en-1-one], the figures for the GI50 at BaF3_HER2YVMA cells (setting [1]), on BaF3_EGFRWT cells (setting [2]) and on BaF3_HER2WT cells (setting [3]) were below 200 nM, 1500 to 5000 nM and below 200 nM, respectively.
Consider `C=CC(=O)N1C2CCC1CC(c1ccn3ncnc(Nc4ccc(Oc5ccn6ncnc6c5)c(C)c4)c13)C2` (single isomer, unassigned) [Examples 124 and 125, first eluting isomer, 1-(3-(4-((4-([1,2,4]triazolo[1,5-a]pyridin-7-yloxy)-3-methylphenyl)amino)pyrrolo[2,1-f][1,2,4]triazin-5-yl)-8-azabicyclo[3.2.1]octan-8-yl)prop-2-en-1-one], for which the GI50 at BaF3_HER2YVMA cells (setting [4]), on BaF3_EGFRWT cells (setting [5]) and on BaF3_HER2WT cells (setting [6]) was below 200 nM each time.
In the case of `Cc1cc(Nc2ncnn3ccc(C4CCN(C(=O)/C=C/CN(C)C)C4)c23)ccc1Oc1ccn2ncnc2c1` (single isomer, unassigned) [Examples 99 and 100, second eluting isomer, (E)-1-(3-(4-((4-([1,2,4]triazolo[1,5-a]pyridin-7-yloxy)-3-methylphenyl)amino)pyrrolo[2,1-f][1,2,4]triazin-5-yl)pyrrolidin-1-yl)-4-(dimethylamino)but-2-en-1-one], the GI50 was 500 to 1500 nM at BaF3_HER2YVMA cells (setting [4]), 1500 to 5000 nM on BaF3_EGFRWT cells (setting [5]) and below 200 nM on BaF3_HER2WT cells (setting [6]).
Turning to `Cc1cc(Nc2ncnn3ccc(C4CN(C(=O)/C=C/CN5CCC(F)(F)C5)C4)c23)ccc1Oc1ccn2ncnc2c1` [Example 84, (E)-1-(3-(4-((4-([1,2,4]triazolo[1,5-a]pyridin-7-yloxy)-3-methylphenyl)amino)pyrrolo[2,1-f][1,2,4]triazin-5-yl)azetidin-1-yl)-4-(3,3-difluoropyrrolidin-1-yl)but-2-en-1-one], the values for the GI50 at BaF3_HER2YVMA cells (setting [1]), at BaF3_EGFRWT cells (setting [2]) and at BaF3_HER2WT cells (setting [3]) were 200 to 500 nM, 1500 to 5000 nM and below 200 nM, respectively.
On to `COC/C=C/C(=O)N1CCC(c2ccn3ncnc(Nc4ccc(Oc5ccn6ncnc6c5)c(C)c4)c23)CC1` [Example 58, (E)-1-(4-(4-((4-([1,2,4]triazolo[1,5-a]pyridin-7-yloxy)-3-methylphenyl)amino)pyrrolo[2,1-f][1,2,4]triazin-5-yl)piperidin-1-yl)-4-methoxybut-2-en-1-one], for which the GI50 is 500 to 1500 nM at BaF3_HER2YVMA cells (setting [1]), 1500 to 5000 nM at BaF3_EGFRWT cells (setting [2]) and below 200 nM on BaF3_HER2WT cells (setting [3]).
The corresponding values for `C=CC(=O)N1CC(N(C)c2ccn3ncnc(Nc4ccc(Oc5ccn6ncnc6c5)c(C)c4)c23)C1` [Example 77, 1-(3-((4-((4-([1,2,4]triazolo[1,5-a]pyridin-7-yloxy)-3-methylphenyl)amino)pyrrolo[2,1-f][1,2,4]triazin-5-yl)(methyl)amino)azetidin-1-yl)prop-2-en-1-one] are 1500 to 5000 nM, 1500 to 5000 nM and 200 to 500 nM.
The corresponding values for `C=C(C#N)C(=O)N1CCC(c2ccn3ncnc(Nc4ccc(Oc5ccn6ncnc6c5)c(C)c4)c23)CC1` [Example 27, 2-(4-(4-((4-([1,2,4]triazolo[1,5-a]pyridin-7-yloxy)-3-methylphenyl)amino)pyrrolo[2,1-f][1,2,4]triazin-5-yl)piperidine-1-carbonyl)acrylonitrile] are 1500 to 5000 nM, 1500 to 5000 nM and 500 to 1500 nM.
The corresponding values for `Cc1cc(Nc2ncnn3ccc(C4CN(C(=O)/C=C/CN(C)C)C4)c23)ccc1Oc1ccn2ccnc2c1` [Example 157, (E)-4-(dimethylamino)-1-(3-(4-((4-(imidazo[1,2-a]pyridin-7-yloxy)-3-methylphenyl)amino)pyrrolo[2,1-f][1,2,4]triazin-5-yl)azetidin-1-yl)but-2-en-1-one] are below 200 nM, 1500 to 5000 nM and below 200 nM.
On to `Cc1cc(Nc2ncnn3ccc(C4CN(C(=O)/C=C/C56CCCN5CCC6)C4)c23)ccc1Oc1ccn2ncnc2c1` [Example 159, (E)-1-(3-(4-((4-([1,2,4]triazolo[1,5-a]pyridin-7-yloxy)-3-methylphenyl)amino)pyrrolo[2,1-f][1,2,4]triazin-5-yl)azetidin-1-yl)-3-(tetrahydro-1H-pyrrolizin-7a(5H)-yl)prop-2-en-1-one], for which the GI50 was below 200 nM at BaF3_HER2YVMA cells (setting [1]), 1500 to 5000 nM at BaF3_EGFRWT cells (setting [2]) and below 200 nM on BaF3_HER2WT cells (setting [3]).
Regarding `C=CC(=O)NC1CCCN(c2ccn3ncnc(Nc4ccc(Oc5ccn6ncnc6c5)c(C)c4)c23)C1` (stereo not drawn) [Example 76, N-(1-(4-((4-([1,2,4]triazolo[1,5-a]pyridin-7-yloxy)-3-methylphenyl)amino)pyrrolo[2,1-f][1,2,4]triazin-5-yl)piperidin-3-yl)acrylamide], the results for the GI50 at BaF3_HER2YVMA cells (setting [1]), on BaF3_EGFRWT cells (setting [2]) and on BaF3_HER2WT cells (setting [3]) were 500 to 1500 nM, 1500 to 5000 nM and below 200 nM, respectively.
Take `Cc1cc(Nc2ncnn3ccc(C4CCCN(C(=O)C(F)Cl)CC4)c23)ccc1Oc1ccn2ncnc2c1` (single isomer, unassigned) [Examples 145, 146, 147 and 148, first eluting isomer, 1-(4-(4-((4-([1,2,4]triazolo[1,5-a]pyridin-7-yloxy)-3-methylphenyl)amino)pyrrolo[2,1-f][1,2,4]triazin-5-yl)azepan-1-yl)-2-chloro-2-fluoroethan-1-one]: the GI50 on BaF3_HER2YVMA cells (setting [4]) is 200 to 500 nM; on BaF3_EGFRWT cells (setting [5]) it was 1500 to 5000 nM; on BaF3_HER2WT cells (setting [6]), below 200 nM.
Consider `Cc1cc(Nc2ncnn3ccc(C4CCN(C(=O)/C=C/CN)CC4)c23)ccc1Oc1ccn2ncnc2c1` [Example 150, (E)-1-(4-(4-((4-([1,2,4]triazolo[1,5-a]pyridin-7-yloxy)-3-methylphenyl)amino)pyrrolo[2,1-f][1,2,4]triazin-5-yl)piperidin-1-yl)-4-aminobut-2-en-1-one], for which the GI50 on BaF3_HER2YVMA cells (setting [1]) was in the range of 1500 to 5000 nM; at BaF3_EGFRWT cells (setting [2]) it was 1500 to 5000 nM; on BaF3_HER2WT cells (setting [3]) it was 500 to 1500 nM.
For `C=C(CN(C)C)C(=O)N1CC(c2ccn3ncnc(Nc4ccc(Oc5ccc6c(c5)ncn6C)c(C)c4)c23)C1` [Example 67, 2-((dimethylamino)methyl)-1-(3-(4-((3-methyl-4-((1-methyl-1H-benzo[d]imidazol-5-yl)oxy)phenyl)amino)pyrrolo[2,1-f][1,2,4]triazin-5-yl)azetidin-1-yl)prop-2-en-1-one], the GI50 on BaF3_HER2YVMA cells (setting [1]) is below 200 nM; at BaF3_EGFRWT cells (setting [2]), 500 to 1500 nM; on BaF3_HER2WT cells (setting [3]) it was below 200 nM.
With `Cc1cc(Nc2ncnn3ccc([C@@H]4CCCN(C(=O)[C@H](F)Cl)CC4)c23)ccc1Oc1ccn2ncnc2c1` (single isomer, unassigned) [Examples 145, 146, 147 and 148, fourth eluting isomer], the GI50 on BaF3_HER2YVMA cells (setting [4]) fell in the range of 500 to 1500 nM; on BaF3_EGFRWT cells (setting [5]) it was 1500 to 5000 nM; on BaF3_HER2WT cells (setting [6]) it was 200 to 500 nM.
Take `C=CC(=O)N1C2CCC1CN(c1ccn3ncnc(Nc4ccc(Oc5ccn6ncnc6c5)c(C)c4)c13)C2` [Example 46, 1-(3-(4-((4-([1,2,4]triazolo[1,5-a]pyridin-7-yloxy)-3-methylphenyl)amino)pyrrolo[2,1-f][1,2,4]triazin-5-yl)-3,8-diazabicyclo[3.2.1]octan-8-yl)prop-2-en-1-one]: the GI50 at BaF3_HER2YVMA cells (setting [1]) is below 200 nM; at BaF3_EGFRWT cells (setting [2]) it was 200 to 500 nM; on BaF3_HER2WT cells (setting [3]), below 200 nM.
Turning to `Cc1cc(Nc2ncnn3ccc(C4CCCN(C(=O)C(F)Cl)CC4)c23)ccc1Oc1ccn2ncnc2c1` (single isomer, unassigned) [Examples 145, 146, 147 and 148, third eluting isomer, 1-(4-(4-((4-([1,2,4]triazolo[1,5-a]pyridin-7-yloxy)-3-methylphenyl)amino)pyrrolo[2,1-f][1,2,4]triazin-5-yl)azepan-1-yl)-2-chloro-2-fluoroethan-1-one], the GI50 is 500 to 1500 nM at BaF3_HER2YVMA cells (setting [4]), 1500 to 5000 nM on BaF3_EGFRWT cells (setting [5]) and 200 to 500 nM at BaF3_HER2WT cells (setting [6]).
Regarding `CNC/C=C/C(=O)N1CC(c2ccn3ncnc(Nc4ccc(Oc5ccc6c(c5)ncn6C)c(C)c4)c23)C1` [Example 153, (E)-1-(3-(4-((3-methyl-4-((1-methyl-1H-benzo[d]imidazol-5-yl)oxy)phenyl)amino)pyrrolo[2,1-f][1,2,4]triazin-5-yl)azetidin-1-yl)-4-(methylamino)but-2-en-1-one], the GI50 on BaF3_HER2YVMA cells (setting [1]), at BaF3_EGFRWT cells (setting [2]) and at BaF3_HER2WT cells (setting [3]) was 1500 to 5000 nM in each case.
Take `Cc1cc(Nc2ncnn3ccc(C4CCN(C(=O)/C=C/CN5CCC6(COC6)C5)CC4)c23)ccc1Oc1ccn2ncnc2c1` [Example 120, E-1-(4-(4-((4-([1,2,4]triazolo[1,5-a]218midazol-7-yloxy)-3-methylphenyl)amino)pyrrolo[2,1-f][1,2,4]triazin-5-yl)piperidin-1-yl)-4-(2-oxa-6-azaspiro[3.4]octan-6-yl)but-2-en-1-one]: the GI50 is below 200 nM at BaF3_HER2YVMA cells (setting [1]), 1500 to 5000 nM on BaF3_EGFRWT cells (setting [2]) and below 200 nM at BaF3_HER2WT cells (setting [3]).
